From publication PMC11435058, “Synthesis of New Thiazole-Privileged Chalcones as Tubulin Polymerization Inhibitors with Potential Anticancer Activities” (Pharmaceuticals, 2024)

How the values were obtained:
MDA-MB-468 = assay: NCI-60 anticancer screen (SRB; single dose and five doses); format: cell-based, human; details: for activity at 10 µM: 48 h, MDA-MB-468, dose of 10 μM, read-out: Growth Percentage
How it was run: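 Readout was sulforhodamine B staining, read spectrophotometrically as percent growth against untreated controls. This followed a 48 h exposure to one 10μM dose across roughly 60 human tumor lines of the NCI screen.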

OVCAR-3 = assay: cells; details: Homo sapiens; for activity at 10 µM: OVCAR-3, 48 h, read-out: Growth Percentage
HL-60(TB) = assay: NCI-60 anticancer screen (SRB; single dose and five doses); details: Homo sapiens; for activity at 10 µM: HL-60, 48 h, read-out: Growth Percentage
A549/ATCC = assay: as above; details: Homo sapiens; for activity at 10 µM: A549, 48 h, read-out: Growth Percentage
HOP-62 = assay: as above; details: Homo sapiens
HOP-92 = assay: as above; details: Homo sapiens; for activity at 10 µM: HOP-92, 48 h, read-out: Growth Percentage
NCI-H460 = assay: as above; details: Homo sapiens; for activity at 10 µM: NCI-H460, 48 h, read-out: Growth Percentage
HT29 = assay: as above; details: Homo sapiens; for activity at 10 µM: HT-29, 48 h, read-out: Growth Percentage
KM12 = assay: as above; details: Homo sapiens; for activity at 10 µM: KM12, 48 h, read-out: Growth Percentage
SW-620 = assay: as above; details: Homo sapiens; for activity at 10 µM: SW-620, 48 h, read-out: Growth Percentage
SF-295 = assay: as above; details: Homo sapiens; for activity at 10 µM: SF-295, 48 h, read-out: Growth Percentage
SNB-75 = assay: as above; details: Homo sapiens, SNB-75, 48 h, read-out: Growth Percentage
U251 = assay: as above; details: Homo sapiens; for activity at 10 µM: U-251, 48 h, read-out: Growth Percentage
MDA-MB-435 = assay: as above; details: Homo sapiens; for activity at 10 µM: MDA-MB-435, 48 h, read-out: Growth Percentage
SK-MEL-2 = assay: as above; details: Homo sapiens; for activity at 10 µM: SK-MEL-2, 48 h, read-out: Growth Percentage
SK-MEL-28 = assay: as above; details: Homo sapiens; for activity at 10 µM: SK-MEL-28, 48 h, read-out: Growth Percentage
UACC-62 = assay: as above; details: Homo sapiens; for activity at 10 µM: UACC-62, 48 h, read-out: Growth Percentage
IGROV1 = assay: as above; details: Homo sapiens; for activity at 10 µM: IGROV-1, 48 h, read-out: Growth Percentage
OVCAR-4 = assay: as above; details: Homo sapiens; for activity at 10 µM: OVCAR-4, 48 h, read-out: Growth Percentage
OVCAR-5 = assay: as above; details: Homo sapiens; for activity at 10 µM: OVCAR-5, 48 h, read-out: Growth Percentage
SK-OV-3 = assay: as above; details: Homo sapiens
786-0 = assay: as above; details: Homo sapiens; for activity at 10 µM: 786-0, 48 h, read-out: Growth Percentage
CAKI-1 = assay: as above; details: Homo sapiens; for activity at 10 µM: CAKI-1, 48 h, read-out: Growth Percentage
TK-10 = assay: as above; details: Homo sapiens; for activity at 10 µM: TK-10, 48 h, read-out: Growth Percentage
T-47D = assay: as above; details: Homo sapiens, T47D

`Cc1[nH]c(=S)sc1C(=O)/C=C/c1ccc(F)cc1` [2c, (E)-3-(4-Fluorophenyl)-1-(4-Methyl-2-Thioxo-2,3-Dihydrothiazol-5-yl)Prop-2-En-1-One] showed an activity at 10 µM (MDA-MB-468; Homo sapiens) of -4.51%, a GI50 (MDA-MB-468; Homo sapiens, MDA-MB-468, Breast Cancer, five dose) of 1.93 µM and a CC50 (MDA-MB-468; Homo sapiens, MDA-MB-468, Breast Cancer, five dose, read-out: LC50 (the source's name)) of 25.3 µM. For the same molecule, the TGI (MDA-MB-468; MDA-MB-468, Breast Cancer, five dose) was 6.46 µM, the GI50 (OVCAR-3; OVCAR-3) was 2.42 µM and the activity at 10 µM (OVCAR-3) was -10.9%. It also gave a CC50 (OVCAR-3; OVCAR-3, read-out: LC50) of 24.5 µM, an IC (TGI) (OVCAR-3; OVCAR-3, read-out: TGI) of 6.81 µM and a GI50 (HL-60(TB); HL-60) of 2.83 µM. It also gave an activity at 10 µM (HL-60(TB)) of 13%, a CC50 (HL-60(TB); HL-60, read-out: LC50) greater than 100 µM and an IC (TGI) (HL-60(TB); HL-60, read-out: TGI) of 32.2 µM. The GI50 (A549/ATCC; A549) was 12.4 µM, the activity at 10 µM (A549/ATCC) was 56% and the CC50 (A549/ATCC; A549, read-out: LC50) was 57.7 µM. The IC (TGI) (A549/ATCC; A549, read-out: TGI) was 26.8 µM, the GI50 (HOP-62; HOP-62) was 3.83 µM and the CC50 (HOP-62; HOP-62, read-out: LC50) was 48.7 µM. For the same molecule, the IC (TGI) (HOP-62; HOP-62, read-out: TGI) was 16.2 µM, the GI50 (HOP-92; HOP-92) was 3.35 µM and the activity at 10 µM (HOP-92) was 45.4%. For the same molecule, the CC50 (HOP-92; HOP-92, read-out: LC50) was 56 µM, the IC (TGI) (HOP-92; HOP-92, read-out: TGI) was 15.8 µM and the GI50 (NCI-H460; NCI-H460) was 15.2 µM. It also gave an activity at 10 µM (NCI-H460) of 39.3%, a CC50 (NCI-H460; NCI-H460, read-out: LC50) of 83.3 µM and an IC (TGI) (NCI-H460; NCI-H460, read-out: TGI) of 35.6 µM. It also gave a GI50 (HT29; HT-29) of 10.6 µM, an activity at 10 µM (HT29) of 73.3% and a CC50 (HT29; HT-29, read-out: LC50) of 52.4 µM. The IC (TGI) (HT29; HT-29, read-out: TGI) was 23.6 µM, the GI50 (KM12; KM12) was 4.28 µM and the activity at 10 µM (KM12) was 6.85%. It also gave a CC50 (KM12; KM12, read-out: LC50) of 41 µM, an IC (TGI) (KM12; KM12, read-out: TGI) of 15.4 µM and a GI50 (SW-620; SW-620) of 3.37 µM. The activity at 10 µM (SW-620) was 13.8%, the CC50 (SW-620; SW-620, read-out: LC50) was 49.3 µM and the IC (TGI) (SW-620; SW-620, read-out: TGI) was 15 µM. For the same molecule, the GI50 (SF-295; SF-295) was 12.5 µM, the activity at 10 µM (SF-295) was 60.6% and the CC50 (SF-295; SF-295, read-out: LC50) was 52.9 µM. It also gave an IC (TGI) (SF-295; SF-295, read-out: TGI) of 25.7 µM, an activity at 10 µM (SNB-75) of 36.5% and a GI50 (U251; U-251) of 3.63 µM. For the same molecule, the activity at 10 µM (U251) was 14.1%, the CC50 (U251; U-251, read-out: LC50) was 41.9 µM and the IC (TGI) (U251; U-251, read-out: TGI) was 15.1 µM. It also gave a GI50 (MDA-MB-435; MDA-MB-435) of 4.24 µM, an activity at 10 µM (MDA-MB-435) of 4.67% and a CC50 (MDA-MB-435; MDA-MB-435, read-out: LC50) of 48.7 µM. It also gave an IC (TGI) (MDA-MB-435; MDA-MB-435, read-out: TGI) of 17.5 µM, a GI50 (SK-MEL-2; SK-MEL-2) of 11.6 µM and an activity at 10 µM (SK-MEL-2) of 56.6%. For the same molecule, the CC50 (SK-MEL-2; SK-MEL-2, read-out: LC50) was 50.1 µM, the IC (TGI) (SK-MEL-2; SK-MEL-2, read-out: TGI) was 24.1 µM and the GI50 (SK-MEL-28; SK-MEL-28) was 11.8 µM. It also gave an activity at 10 µM (SK-MEL-28) of 50.6%, a CC50 (SK-MEL-28; SK-MEL-28, read-out: LC50) of 51.4 µM and an IC (TGI) (SK-MEL-28; SK-MEL-28, read-out: TGI) of 24.7 µM. For the same molecule, the GI50 (UACC-62; UACC-62) was 5.3 µM, the activity at 10 µM (UACC-62) was 47.3% and the IC (TGI) (UACC-62; UACC-62, read-out: TGI) was 19.3 µM. For the same molecule, the GI50 (IGROV1; IGROV-1) was 4.93 µM, the activity at 10 µM (IGROV1) was 51.2% and the CC50 (IGROV1; IGROV-1, read-out: LC50) was 62.3 µM. The IC (TGI) (IGROV1; IGROV-1, read-out: TGI) was 19.7 µM, the GI50 (OVCAR-4; OVCAR-4) was 6.03 µM and the activity at 10 µM (OVCAR-4) was 48.4%. It also gave a CC50 (OVCAR-4; OVCAR-4, read-out: LC50) of 44.7 µM, an IC (TGI) (OVCAR-4; OVCAR-4, read-out: TGI) of 19.6 µM and a GI50 (OVCAR-5; OVCAR-5) of 15.6 µM. The activity at 10 µM (OVCAR-5) was 119%, the CC50 (OVCAR-5; OVCAR-5, read-out: LC50) was 57.7 µM and the IC (TGI) (OVCAR-5; OVCAR-5, read-out: TGI) was 30 µM. The GI50 (SK-OV-3; SK-OV-3) was 11 µM, the CC50 (SK-OV-3; SK-OV-3, read-out: LC50) was 61.8 µM and the IC (TGI) (SK-OV-3; SK-OV-3, read-out: TGI) was 26.1 µM. It also gave a GI50 (786-0; 786-0) of 4.59 µM, an activity at 10 µM (786-0) of 37.3% and a CC50 (786-0; 786-0, read-out: LC50) of 47.1 µM. For the same molecule, the IC (TGI) (786-0; 786-0, read-out: TGI) was 17.6 µM, the GI50 (CAKI-1; CAKI-1) was 6.89 µM and the activity at 10 µM (CAKI-1) was 31.6%. It also gave a CC50 (CAKI-1; CAKI-1, read-out: LC50) of 45.4 µM, an IC (TGI) (CAKI-1; CAKI-1, read-out: TGI) of 20.2 µM and a GI50 (TK-10; TK-10) of 12.5 µM. For the same molecule, the activity at 10 µM (TK-10) was 40.4%, the CC50 (TK-10; TK-10, read-out: LC50) was 50.7 µM and the IC (TGI) (TK-10; TK-10, read-out: TGI) was 25.2 µM. The GI50 (T-47D) was 3.94 µM, the CC50 (T-47D; read-out: LC50) was greater than 100 µM and the IC (TGI) (T-47D; read-out: TGI) was 28.8 µM.

In the case of `Cc1ccc(/C=C/C(=O)c2sc(=S)[nH]c2C)cc1` [2j, (E)-1-(4-Methyl-2-Thioxo-2,3-Dihydrothiazol-5-yl)-3-(p-Tolyl)Prop-2-En-1-One], the activity at 10 µM (MDA-MB-468; Homo sapiens) was 11.8%, the activity at 10 µM (OVCAR-3) was 15% and the activity at 10 µM (HL-60(TB)) was 61%. It also gave an activity at 10 µM (A549/ATCC) of 74.3%, an activity at 10 µM (HOP-62; HOP-62, 48 h, read-out: Growth Percentage) of 54.1% and an activity at 10 µM (HOP-92) of 98%. For the same molecule, the activity at 10 µM (NCI-H460) was 53.1%, the activity at 10 µM (HT29) was 98.7% and the activity at 10 µM (KM12) was 29.8%. The activity at 10 µM (SW-620) was 35.9%, the activity at 10 µM (SF-295) was 83.4% and the activity at 10 µM (SNB-75) was 78.1%. It also gave an activity at 10 µM (U251) of 60.4%, an activity at 10 µM (MDA-MB-435) of 39% and an activity at 10 µM (SK-MEL-2) of 89.8%. It also gave an activity at 10 µM (SK-MEL-28) of 92.8%, an activity at 10 µM (UACC-62) of 59.4% and an activity at 10 µM (IGROV1) of 83.4%. The activity at 10 µM (OVCAR-4) was 59.2%, the activity at 10 µM (OVCAR-5) was 138% and the activity at 10 µM (SK-OV-3; SK-OV-3, 48 h, read-out: Growth Percentage) was 102%. It also gave an activity at 10 µM (786-0) of 70.7%, an activity at 10 µM (CAKI-1) of 43.4% and an activity at 10 µM (TK-10) of 79.8%. For the same molecule, the activity at 10 µM (T-47D; 48 h, read-out: Growth Percentage) was 38.3%.
